ChEMBL document CHEMBL3046257, “Response of sweet maize (Zea mays L.) hybrids to halosulfuron” (Crop Prot, 2008)

Tests used:
Format in all cases: organism-based
[1] = system: Zea mays; test: Toxicity in Zea mays GG446 (maize) assessed as visible injury at 25 g ai/ha applied shortly post-emergence at three to five-leaf stage using backpack sprayer measured after 28 days; settings: in vivo, other, 672 h
[2] = system: Zea mays; test: Toxicity in Zea mays GG446 (maize) assessed as visible injury at 25 g ai/ha applied shortly post-emergence at three to five-leaf stage using backpack sprayer measured after 14 days; settings: in vivo, other, 336 h
[3] = system: Zea mays; test: Toxicity in Zea mays GSS9299 (maize) assessed as cob size at 25 g ai/ha applied shortly post-emergence at three to five-leaf stage using backpack sprayer (reference value: 292 g); settings: in vivo, other
[4] = system: Zea mays; test: Toxicity in Zea mays GG214 (maize) assessed as cob size at 50 g ai/ha applied shortly post-emergence at three to five-leaf stage using backpack sprayer (reference value: 292 g); settings: in vivo, other
[5] = system: Zea mays; test: Toxicity in Zea mays GH2041 (maize) assessed as plant height at 25 g ai/ha applied shortly post-emergence at three to five-leaf stage using backpack sprayer measured after 21 days (Rvb =80 cm); settings: in vivo, other, 504 h
[6] = system: Zea mays; test: Toxicity in Zea mays GH2547 (maize) assessed as visible injury at 50 g ai/ha applied shortly post-emergence at three to five-leaf stage using backpack sprayer measured after 14 days; settings: in vivo, other, 336 h
[7] = system: Zea mays; test: Toxicity in Zea mays GG446 (maize) assessed as marketable yield at 50 g ai/ha applied shortly post-emergence at three to five-leaf stage using backpack sprayer (reference value: 20.0 T/ha ); settings: in vivo, other
[8] = system: Zea mays; test: Toxicity in Zea mays GG214 (maize) assessed as visible injury at 25 g ai/ha applied shortly post-emergence at three to five-leaf stage using backpack sprayer measured after 28 days; settings: in vivo, other, 672 h
[9] = system: Zea mays; test: Toxicity in Zea mays GH2298 (maize) assessed as plant height at 50 g ai/ha applied shortly post-emergence at three to five-leaf stage using backpack sprayer measured after 21 days (Rvb =80 cm); settings: in vivo, other, 504 h
[10] = system: Zea mays; test: Toxicity in Zea mays GH2684 (maize) assessed as plant height at 25 g ai/ha applied shortly post-emergence at three to five-leaf stage using backpack sprayer measured after 21 days (Rvb =73 cm); settings: in vivo, other, 504 h
[11] = system: Zea mays; test: Toxicity in Zea mays GH2298 (maize) assessed as cob size at 50 g ai/ha applied shortly post-emergence at three to five-leaf stage using backpack sprayer (reference value: 307 g); settings: in vivo, other
[12] = system: Zea mays; test: Toxicity in Zea mays GG214 (maize) assessed as marketable yield at 50 g ai/ha applied shortly post-emergence at three to five-leaf stage using backpack sprayer (reference value: 14.2 T/ha ); settings: in vivo, other
[13] = system: Zea mays; test: Toxicity in Zea mays GG446 (maize) assessed as plant height at 50 g ai/ha applied shortly post-emergence at three to five-leaf stage using backpack sprayer measured after 21 days (reference value: 85 cm); settings: in vivo, other, 504 h
[14] = system: Zea mays; test: Toxicity in Zea mays GH2547 (maize) assessed as cob size at 50 g ai/ha applied shortly post-emergence at three to five-leaf stage using backpack sprayer (reference value: 315 g); settings: in vivo, other
[15] = system: Zea mays; test: Toxicity in Zea mays GG214 (maize) assessed as cob size at 25 g ai/ha applied shortly post-emergence at three to five-leaf stage using backpack sprayer (reference value: 292 g); settings: in vivo, other
[16] = system: Zea mays; test: Toxicity in Zea mays GH2684 (maize) assessed as plant height at 50 g ai/ha applied shortly post-emergence at three to five-leaf stage using backpack sprayer measured after 21 days (Rvb =73 cm); settings: in vivo, other, 504 h
[17] = system: Zea mays; test: Toxicity in Zea mays GH2547 (maize) assessed as visible injury at 25 g ai/ha applied shortly post-emergence at three to five-leaf stage using backpack sprayer measured after 7 days; settings: in vivo, other, 168 h
[18] = system: Zea mays; test: Toxicity in Zea mays GH2547 (maize) assessed as marketable yield at 50 g ai/ha applied shortly post-emergence at three to five-leaf stage using backpack sprayer (reference value: 16.7 T/ha ); settings: in vivo, other
[19] = system: Zea mays; test: Toxicity in Zea mays GG214 (maize) assessed as visible injury at 50 g ai/ha applied shortly post-emergence at three to five-leaf stage using backpack sprayer measured after 7 days; settings: in vivo, other, 168 h
[20] = system: Zea mays; test: Toxicity in Zea mays GH2041 (maize) assessed as visible injury at 25 g ai/ha applied shortly post-emergence at three to five-leaf stage using backpack sprayer measured after 28 days; settings: in vivo, other, 672 h
[21] = system: Zea mays; test: Toxicity in Zea mays GH2298 (maize) assessed as cob size at 25 g ai/ha applied shortly post-emergence at three to five-leaf stage using backpack sprayer (reference value: 307 g); settings: in vivo, other
[22] = system: Zea mays; test: Toxicity in Zea mays GH2298 (maize) assessed as marketable yield at 25 g ai/ha applied shortly post-emergence at three to five-leaf stage using backpack sprayer (reference value: 16.9 T/ha ); settings: in vivo, other
[23] = system: Zea mays; test: Toxicity in Zea mays GG446 (maize) assessed as visible injury at 50 g ai/ha applied shortly post-emergence at three to five-leaf stage using backpack sprayer measured after 14 days; settings: in vivo, other, 336 h
[24] = system: Zea mays; test: Toxicity in Zea mays GH2684 (maize) assessed as cob size at 25 g ai/ha applied shortly post-emergence at three to five-leaf stage using backpack sprayer (reference value: 340 g); settings: in vivo, other
[25] = system: Zea mays; test: Toxicity in Zea mays GH2041 (maize) assessed as visible injury at 25 g ai/ha applied shortly post-emergence at three to five-leaf stage using backpack sprayer measured after 14 days; settings: in vivo, other, 336 h
[26] = system: Zea mays; test: Toxicity in Zea mays Empire (maize) assessed as visible injury at 25 g ai/ha applied shortly post-emergence at three to five-leaf stage using backpack sprayer measured after 14 days; settings: in vivo, other, 336 h
[27] = system: Zea mays; test: Toxicity in Zea mays GG214 (maize) assessed as plant height at 25 g ai/ha applied shortly post-emergence at three to five-leaf stage using backpack sprayer measured after 21 days (Rvb =81 cm); settings: in vivo, other, 504 h
[28] = system: Zea mays; test: Toxicity in Zea mays Empire (maize) assessed as visible injury at 50 g ai/ha applied shortly post-emergence at three to five-leaf stage using backpack sprayer measured after 14 days; settings: in vivo, other, 336 h
[29] = system: Zea mays; test: Toxicity in Zea mays GSS9299 (maize) assessed as marketable yield at 50 g ai/ha applied shortly post-emergence at three to five-leaf stage using backpack sprayer (reference value: 13.2 T/ha ); settings: in vivo, other
[30] = system: Zea mays; test: Toxicity in Zea mays GH2547 (maize) assessed as visible injury at 50 g ai/ha applied shortly post-emergence at three to five-leaf stage using backpack sprayer measured after 28 days; settings: in vivo, other, 672 h
[31] = system: Zea mays; test: Toxicity in Zea mays GH2684 (maize) assessed as marketable yield at 25 g ai/ha applied shortly post-emergence at three to five-leaf stage using backpack sprayer (reference value: 15.5 T/ha ); settings: in vivo, other
[32] = system: Zea mays; test: Toxicity in Zea mays GH2547 (maize) assessed as visible injury at 25 g ai/ha applied shortly post-emergence at three to five-leaf stage using backpack sprayer measured after 14 days; settings: in vivo, other, 336 h
[33] = system: Zea mays; test: Toxicity in Zea mays Empire (maize) assessed as reduction in marketable yield at 25 g ai/ha applied shortly post-emergence at three to five-leaf stage using backpack sprayer; design: scale not given: the % may be the effect or the level left; settings: in vivo, other

## COc1cc(OC)nc(NC(=O)NS(=O)(=O)c2c(C(=O)O)c(Cl)nn2C)n1 [HALOSULFURON]
[1]
  Activity: 0%
[2]
  Activity: 0%
[3]
  Activity: 301 g
[4]
  Activity: 287 g
[5]
  Activity: 76 cm
[6]
  Activity: 0%
[7]
  Crop_yield: 19.6 tons/ha
[8]
  Activity: 0%
[9]
  Activity: 76 cm
[10]
  Activity: 76 cm
[11]
  Activity: 308 g
[12]
  Crop_yield: 13.3 tons/ha
[13]
  Activity: 82 cm
[14]
  Activity: 312 g
[15]
  Activity: 293 g
[16]
  Activity: 73 cm
[17]
  Activity: 1%
[18]
  Crop_yield: 15.7 tons/ha
[19]
  Activity: 3%
[20]
  Activity: 0%
[21]
  Activity: 315 g
[22]
  Crop_yield: 16.4 tons/ha
[23]
  Activity: 0%
[24]
  Activity: 316 g
[25]
  Activity: 1%
[26]
  Activity: 3%
[27]
  Activity: 77 cm
[28]
  Activity: 6%
[29]
  Crop_yield: 12.8 tons/ha
[30]
  Activity: 0%
[31]
  Crop_yield: 15.5 tons/ha
[32]
  Activity: 0%
[33]
  Activity: 14%
